System: OVCAR-8 complex spheroid, growth inhibition
Assay: Anticancer human tumor OVCAR-8 cell line growth inhibition [Asc];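 note: spheroids exposed to agents for 7 days before readout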;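 for viability, T/C: percent viability relative to DMSO vehicle wells taken as 100%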
Settings: for IC50: curve of first compound; for viability, T/C: stronger effect = lower value
In short: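 Concentration series start at each agent's clinical Cmax, or at 10 microM when none is established, and drop in half-log steps; agents are applied alone or together to complex spheroids built with HUVEC and hMSC.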

In the case of `NC(=O)C(=Cn1cnc(-c2cc(C(F)(F)F)cc(C(F)(F)F)c2)n1)c1cncnc1` + CNC(C)C(=O)NC1CN(S(=O)(=O)c2cccc(S(=O)(=O)N3CCC4CCC(C(=O)NC(c5ccccc5)c5ccccc5)N4C(=O)C(NC(=O)C(C)NC)C3)c2)CCC2CCC(C(=O)NC(c3ccccc3)c3ccccc3)N2C1=O, the IC50 (second compound 0.00316 µM) is reported as 261 nM, the IC50 (second compound 0.01 µM) is reported as > 300 nM and the IC50 (second compound 0.0316 µM) is reported as > 300 nM. It also gave an IC50 (second compound 0.1 µM) of 120 nM, an IC50 (second compound 0.316 µM) of 73.2 nM and an IC50 (second compound 1 µM) of 67.9 nM. It also gave a viability, T/C (second compound 0.00316 µM, first compound 0.000949 µM) of 140%, a viability, T/C (second compound 0.00316 µM, first compound 0.003 µM) of 111% and a viability, T/C (second compound 0.00316 µM, first compound 0.00949 µM) of 110%. For the same compound, the viability, T/C (second compound 0.00316 µM, first compound 0.03 µM) was 153%, the viability, T/C (second compound 0.00316 µM, first compound 0.0949 µM) was 95.6% and the viability, T/C (second compound 0.00316 µM, first compound 0.3 µM) was 43.8%. It also gave a viability, T/C (second compound 0.01 µM, first compound 0.000949 µM) of 123%, a viability, T/C (second compound 0.01 µM, first compound 0.003 µM) of 129% and a viability, T/C (second compound 0.01 µM, first compound 0.00949 µM) of 110%. For the same compound, the viability, T/C (second compound 0.01 µM, first compound 0.03 µM) was 123%, the viability, T/C (second compound 0.01 µM, first compound 0.0949 µM) was 91.2% and the viability, T/C (second compound 0.01 µM, first compound 0.3 µM) was 54%. The viability, T/C (second compound 0.0316 µM, first compound 0.000949 µM) was 117%, the viability, T/C (second compound 0.0316 µM, first compound 0.003 µM) was 114% and the viability, T/C (second compound 0.0316 µM, first compound 0.00949 µM) was 112%. The viability, T/C (second compound 0.0316 µM, first compound 0.03 µM) was 129%, the viability, T/C (second compound 0.0316 µM, first compound 0.0949 µM) was 74.5% and the viability, T/C (second compound 0.0316 µM, first compound 0.3 µM) was 48.4%. For the same compound, the viability, T/C (second compound 0.1 µM, first compound 0.000949 µM) was 122%, the viability, T/C (second compound 0.1 µM, first compound 0.003 µM) was 91.6% and the viability, T/C (second compound 0.1 µM, first compound 0.00949 µM) was 121%. It also gave a viability, T/C (second compound 0.1 µM, first compound 0.03 µM) of 138%, a viability, T/C (second compound 0.1 µM, first compound 0.0949 µM) of 55.3% and a viability, T/C (second compound 0.1 µM, first compound 0.3 µM) of 29.5%. For the same compound, the viability, T/C (second compound 0.316 µM, first compound 0.000949 µM) was 109%, the viability, T/C (second compound 0.316 µM, first compound 0.003 µM) was 115% and the viability, T/C (second compound 0.316 µM, first compound 0.00949 µM) was 113%. It also gave a viability, T/C (second compound 0.316 µM, first compound 0.03 µM) of 122%, a viability, T/C (second compound 0.316 µM, first compound 0.0949 µM) of 31.3% and a viability, T/C (second compound 0.316 µM, first compound 0.3 µM) of 7.46%. The viability, T/C (second compound 1 µM, first compound 0.000949 µM) was 97%, the viability, T/C (second compound 1 µM, first compound 0.003 µM) was 103% and the viability, T/C (second compound 1 µM, first compound 0.00949 µM) was 109%. It also gave a viability, T/C (second compound 1 µM, first compound 0.03 µM) of 127%, a viability, T/C (second compound 1 µM, first compound 0.0949 µM) of 25.8% and a viability, T/C (second compound 1 µM, first compound 0.3 µM) of 4.16%.
`C=C(F)C(=O)N1CCN(c2nc(OCC3CCCN3C)nc3c2CCN(c2cccc4cccc(Cl)c24)C3)CC1CC#N` (centres undefined) + CCN1C(C(=O)NC23CCC(C(=O)O)(CC2)CC3)C(c2cccc(Cl)c2F)C2(C(=O)Nc3cc(Cl)ccc32)C12CCCCC2 showed an IC50 (second compound 0.00949 µM) of 2580 nM, an IC50 (second compound 0.03 µM) of 2500 nM and an IC50 (second compound 0.0949 µM) of 2720 nM. It also gave an IC50 (second compound 0.3 µM) of 2660 nM, an IC50 (second compound 0.949 µM) of 2490 nM and an IC50 (second compound 3 µM) of 2740 nM. It also gave a viability, T/C (second compound 0.00949 µM, first compound 0.0316 µM) of 115%, a viability, T/C (second compound 0.00949 µM, first compound 0.1 µM) of 86.5% and a viability, T/C (second compound 0.00949 µM, first compound 0.316 µM) of 103%. The viability, T/C (second compound 0.00949 µM, first compound 1 µM) was 119%, the viability, T/C (second compound 0.00949 µM, first compound 3.16 µM) was 38% and the viability, T/C (second compound 0.00949 µM, first compound 10 µM) was 1.01%. The viability, T/C (second compound 0.03 µM, first compound 0.0316 µM) was 96.6%, the viability, T/C (second compound 0.03 µM, first compound 0.1 µM) was 90.2% and the viability, T/C (second compound 0.03 µM, first compound 0.316 µM) was 92.3%. For the same compound, the viability, T/C (second compound 0.03 µM, first compound 1 µM) was 107%, the viability, T/C (second compound 0.03 µM, first compound 3.16 µM) was 38% and the viability, T/C (second compound 0.03 µM, first compound 10 µM) was 0.56%. For the same compound, the viability, T/C (second compound 0.0949 µM, first compound 0.0316 µM) was 93.1%, the viability, T/C (second compound 0.0949 µM, first compound 0.1 µM) was 98.6% and the viability, T/C (second compound 0.0949 µM, first compound 0.316 µM) was 93.9%. For the same compound, the viability, T/C (second compound 0.0949 µM, first compound 1 µM) was 116%, the viability, T/C (second compound 0.0949 µM, first compound 3.16 µM) was 42.3% and the viability, T/C (second compound 0.0949 µM, first compound 10 µM) was 0.29%. The viability, T/C (second compound 0.3 µM, first compound 0.0316 µM) was 83.8%, the viability, T/C (second compound 0.3 µM, first compound 0.1 µM) was 103% and the viability, T/C (second compound 0.3 µM, first compound 0.316 µM) was 105%. For the same compound, the viability, T/C (second compound 0.3 µM, first compound 1 µM) was 121%, the viability, T/C (second compound 0.3 µM, first compound 3.16 µM) was 40.6% and the viability, T/C (second compound 0.3 µM, first compound 10 µM) was 0.7%. It also gave a viability, T/C (second compound 0.949 µM, first compound 0.0316 µM) of 90.3%, a viability, T/C (second compound 0.949 µM, first compound 0.1 µM) of 96.8% and a viability, T/C (second compound 0.949 µM, first compound 0.316 µM) of 102%. It also gave a viability, T/C (second compound 0.949 µM, first compound 1 µM) of 126%, a viability, T/C (second compound 0.949 µM, first compound 3.16 µM) of 35.9% and a viability, T/C (second compound 0.949 µM, first compound 10 µM) of 1.05%. For the same compound, the viability, T/C (second compound 3 µM, first compound 0.0316 µM) was 111%, the viability, T/C (second compound 3 µM, first compound 0.1 µM) was 97.3% and the viability, T/C (second compound 3 µM, first compound 0.316 µM) was 140%. For the same compound, the viability, T/C (second compound 3 µM, first compound 1 µM) was 128%, the viability, T/C (second compound 3 µM, first compound 3.16 µM) was 40.3% and the viability, T/C (second compound 3 µM, first compound 10 µM) was 0.52%.

— PubChem BioAssay AID1963437 (Molecular Pharmacology Branch, DTP, NCI, 2024)
